Where two headings read alike, the source gives them in different places.
How the values were obtained:
CYP1A2 = CYP1A2 (Homo sapiens (Human), UniProt P05177); assay: In vitro inhibitory activity against common CYP450 enzymes: CYP1A2; format: in vitro ADME; details: microsomes, substrate Phenacetin; read-out: IC50 CYP1A2
Procedure: (§1) A working solution of the test compound was prepared in a solvent of dimethyl sulfoxide (DMSO) (starting at a final concentration of 50 μM, 3-fold dilution of 7 concentration points). The corresponding microsomes (CORNING, Cat No.452117) and the corresponding substrate solution were prepared (components were shown in Table 2). The working solution of the test compound and the corresponding microsomes were mixed with the corresponding substrate solution and the HLM working solution. The mixture was preheated in a 37.0° C. water bath for 10 min. NADPH cofactor (BONTAC, Cat No.BT04) was added. The resultant mixture was incubated for 10 min in a 37.0° C. water bath. The reaction was terminated by adding cold stop solution. [table] [table] The sample was centrifuged at 4000 rpm for 20 min to precipitate protein and the supernatant was transferred to HPLC water and shaken for 10 min.

CYP3A = CYP3A (Homo sapiens, UniProt P08684); assay: In vitro inhibitory activity against common CYP450 enzymes: CYP3A (midazolam); format: in vitro ADME; details: human, human liver microsomes, probe Midazolam, substrate Midazolam
Chain of CYP3A (P08684 2-503 limits assumed): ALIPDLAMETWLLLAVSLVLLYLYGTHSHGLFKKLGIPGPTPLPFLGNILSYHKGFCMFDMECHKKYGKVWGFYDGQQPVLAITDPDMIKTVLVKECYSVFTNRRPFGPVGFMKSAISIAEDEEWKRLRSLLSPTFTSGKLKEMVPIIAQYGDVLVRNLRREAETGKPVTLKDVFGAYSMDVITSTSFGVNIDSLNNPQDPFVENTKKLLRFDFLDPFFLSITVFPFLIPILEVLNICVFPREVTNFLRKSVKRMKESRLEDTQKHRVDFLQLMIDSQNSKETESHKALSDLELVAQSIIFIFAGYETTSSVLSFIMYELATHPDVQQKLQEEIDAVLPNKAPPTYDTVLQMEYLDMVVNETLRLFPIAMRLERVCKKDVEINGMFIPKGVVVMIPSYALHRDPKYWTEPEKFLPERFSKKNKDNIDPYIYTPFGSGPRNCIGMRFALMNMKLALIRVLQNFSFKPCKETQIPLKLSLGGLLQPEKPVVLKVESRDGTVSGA
Procedure: as §1

CYP2C9 = CYP2C9 (Homo sapiens (Human), UniProt P11712); assay: In vitro inhibitory activity against common CYP450 enzymes: CYP2C9; format: in vitro ADME; details: microsomes, substrate Diclofenac
Chain of CYP2C9 (P11712 whole entry): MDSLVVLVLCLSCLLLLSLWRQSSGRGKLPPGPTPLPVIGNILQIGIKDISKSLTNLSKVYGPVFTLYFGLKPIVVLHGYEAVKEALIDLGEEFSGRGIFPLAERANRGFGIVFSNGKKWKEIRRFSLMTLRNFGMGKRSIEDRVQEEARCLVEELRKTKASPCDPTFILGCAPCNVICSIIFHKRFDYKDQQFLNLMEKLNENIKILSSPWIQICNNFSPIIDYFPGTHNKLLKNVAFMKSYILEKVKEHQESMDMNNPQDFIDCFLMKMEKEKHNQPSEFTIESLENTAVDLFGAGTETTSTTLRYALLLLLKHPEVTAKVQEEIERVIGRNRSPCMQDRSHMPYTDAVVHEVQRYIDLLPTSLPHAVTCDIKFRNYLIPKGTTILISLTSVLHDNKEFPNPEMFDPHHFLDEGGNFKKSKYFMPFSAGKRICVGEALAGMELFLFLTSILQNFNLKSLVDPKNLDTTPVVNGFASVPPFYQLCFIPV
Procedure: as §1

CYP2D6 = CYP2D6 (Homo sapiens (Human), UniProt P10635); assay: In vitro inhibitory activity against common CYP450 enzymes: CYP2D6; format: in vitro ADME; details: microsomes, substrate Dextromethorphan
Chain of CYP2D6 (P10635 whole entry): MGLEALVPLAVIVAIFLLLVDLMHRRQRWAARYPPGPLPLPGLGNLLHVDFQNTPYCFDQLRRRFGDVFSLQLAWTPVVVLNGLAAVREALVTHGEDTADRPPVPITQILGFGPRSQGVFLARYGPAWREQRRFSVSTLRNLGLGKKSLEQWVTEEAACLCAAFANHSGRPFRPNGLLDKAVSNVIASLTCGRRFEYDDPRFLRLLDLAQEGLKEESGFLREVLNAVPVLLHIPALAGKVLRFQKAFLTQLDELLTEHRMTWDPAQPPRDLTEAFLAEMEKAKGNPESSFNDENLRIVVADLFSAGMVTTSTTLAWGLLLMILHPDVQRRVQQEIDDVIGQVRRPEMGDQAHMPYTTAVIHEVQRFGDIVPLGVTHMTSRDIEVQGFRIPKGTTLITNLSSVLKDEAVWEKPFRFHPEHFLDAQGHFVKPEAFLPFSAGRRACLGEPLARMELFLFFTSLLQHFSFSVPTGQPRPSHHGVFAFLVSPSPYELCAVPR
Procedure: as §1

[1] = Pharmacokinetic test in cynomolgus monkeys (LC/MS); format: in vivo, cynomolgus monkeys (Macaca fascicularis); details: both sexes, cynomolgus monkey, plasma; for AUC(0-t): read-out: AUC0-24 h
Description: Adult cynomolgus monkeys (Macaca fascicularis) with suitable body weight and age were selected. 1 male and 1 female cynomolgus monkeys were used for experiment. The adaptation period was 1 week. On the day of the experiment, monkeys were individually housed in stainless steel mesh cages for testing.
Oral treatment and ACTH working solution (working solution diluted to the desired concentration in PBS sterile solution by ultrapure water filtration through a 0.22 μm filter using Tetracosactrin (HY-P0060, MCE)) were administered as follows: • T=0, 2 monkeys in each group were orally administered 0.5 mg/kg (compound was suspended in 5% aqueous sodium hydroxymethylcellulose solution as vehicle) in a fixed volume of 2 mL/kg; • T=+1 hour (i.e., 1 hour after administration), 14.5 μg/kg of the aforementioned ACTH working solution was injected intramuscularly.
Sampling test: Blood samples (collected in EDTA anticoagulant tubes) were collected before oral administration (Pre-dose) and 0.5 h, 1 h, 2 h, 4 h, 6 h and 12 h after administration for cortisol concentration measurement in plasma. The blood was centrifuged at 10000 rpm for 15 minutes at 4° C., followed by separation of the plasma and uniform storage at −80° C. for further analysis using an Roche biochemical analyzer to detect aldosterone and cortisol in plasma, and a portion of the plasma (0.5 h, 1 h, 2 h, 4 h, 6 h, and 12 h after administration, and an additional blood collection after 24 h) was taken simultaneously to determine the pharmacokinetic parameters by LC/MS.
The above experiment was repeated except that: T=0, two monkeys in each group were orally administered at a dose of 0.05 mg/kg (compound was suspended in 5% aqueous sodium hydroxymethylcellulose as vehicle) in a fixed volume of 2 mL/kg.

CYP2C19 = CYP2C19 (Homo sapiens (Human), UniProt P33261); assay: In vitro inhibitory activity against common CYP450 enzymes: CYP2C19; format: in vitro ADME; details: microsomes, substrate (S)-(+)-Mephenytoin
Chain of CYP2C19 (P33261 whole entry): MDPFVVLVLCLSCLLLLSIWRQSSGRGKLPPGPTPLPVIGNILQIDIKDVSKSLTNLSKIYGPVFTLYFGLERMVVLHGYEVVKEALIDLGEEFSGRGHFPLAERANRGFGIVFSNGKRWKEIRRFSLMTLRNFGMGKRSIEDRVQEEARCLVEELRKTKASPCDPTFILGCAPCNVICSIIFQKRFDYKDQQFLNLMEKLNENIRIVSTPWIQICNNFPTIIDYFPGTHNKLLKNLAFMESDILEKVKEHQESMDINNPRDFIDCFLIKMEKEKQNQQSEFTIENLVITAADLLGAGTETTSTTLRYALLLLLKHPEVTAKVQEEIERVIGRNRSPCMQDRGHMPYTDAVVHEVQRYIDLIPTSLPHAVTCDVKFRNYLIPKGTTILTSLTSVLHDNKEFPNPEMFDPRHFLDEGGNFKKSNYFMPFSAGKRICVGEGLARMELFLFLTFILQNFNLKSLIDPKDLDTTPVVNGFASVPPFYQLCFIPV
Procedure: as §1

aldosterone synthase = aldosterone synthase (Homo sapiens (Human), UniProt P19099); details: phase I clinical study, cited from earlier work
Chain of aldosterone synthase (P19099 25-503): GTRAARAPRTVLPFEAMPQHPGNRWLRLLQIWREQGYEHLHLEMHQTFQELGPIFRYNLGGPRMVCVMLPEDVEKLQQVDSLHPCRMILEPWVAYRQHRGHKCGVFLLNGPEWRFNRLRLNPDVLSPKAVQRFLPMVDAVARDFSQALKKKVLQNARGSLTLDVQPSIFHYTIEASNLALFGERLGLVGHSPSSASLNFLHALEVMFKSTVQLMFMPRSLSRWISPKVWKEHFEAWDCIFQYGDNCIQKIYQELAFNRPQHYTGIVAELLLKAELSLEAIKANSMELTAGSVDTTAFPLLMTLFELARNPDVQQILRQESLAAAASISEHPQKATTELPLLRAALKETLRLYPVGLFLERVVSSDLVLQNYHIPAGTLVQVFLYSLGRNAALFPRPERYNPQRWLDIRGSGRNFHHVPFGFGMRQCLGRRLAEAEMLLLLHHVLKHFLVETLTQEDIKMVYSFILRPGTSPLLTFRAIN

human CYP11B2 = human CYP11B2 (Homo sapiens (Human), UniProt P19099); assay: Inhibitory activity against hCYP11B2 in G-402 CYP11B2 high expression stable transformants (aldosterone HTRF); format: cell-based
Chain of human CYP11B2 (P19099 25-503): as above
Procedure: 1. Experimental System: G-402 CYP11B2 or CYP11B1 High Expression Stable Transformants
The above-mentioned high-expression stable transformants were constructed based on human […] cell line G-402. The artificial lentiviruses were introduced into human CYP11B2 (NM_000498.3) and CYP11B1 (NM_000497.4), respectively.
Maintenance medium: McCoy's 5A (modified, #16600082, GIBCO)+10% FBS (GIBCO)+1 μg/mL puromycin (A1113803, GIBCO).
Resuscitation and seeding medium: McCoy's 5A (modified, #16600082, GIBCO)+10% FBS (GIBCO).
Reaction medium: DMEM/F12 (#11320033, GIBCO)+2.5% activated charcoal filtered FBS (S11695, R & D).
Seeding: Cells were cultured to a suitable state after resuscitation with maintenance medium, and 96-well flat plates were seeded with seeding medium according to 1×10^4/100 μL/well (unified cell volume).
Changing solution: The supernatant was aspirated and discarded after seeding overnight (>12 hours) and adherence. 100-150 μL/well serum-free medium was added, and after being aspirated. After aspiration, 50 μL/well reaction medium was added for later use.
Formulation: Compound was diluted with reaction medium containing 0.4 μM substrate (final experimental concentration is 0.2 μM):
CYP11B2 substrate: 11-deoxycorticosterone (11-deoxycorticosterone, S4243, selleckchem). The final reaction concentration was 0.2 μM
Loading: The above compound dilutions were added to the cell plates at 50 μL/well. The background and control wells were set.
Treating and sampling: The cell plates were incubated in a cell incubator for 16 hours after loading, and then each cell plate was centrifuged at 450 g for 2 min. 75 μL supernatant was transferred to a collection plate and frozen at −80° C. for future use (or direct detection).
Detection: Homogeneous time-resolved fluorescence kit (Cisbio HTRF kit, Cat.64ALDPEG, Cat.62CRTPEG) was used to determine the concentration of aldosterone or cortisol in the supernatant.
Analysis: The absolute IC50 (Abs IC50) for each compound was calculated using a four parameter fit.

Chain of CYP1A2 (P05177 whole entry): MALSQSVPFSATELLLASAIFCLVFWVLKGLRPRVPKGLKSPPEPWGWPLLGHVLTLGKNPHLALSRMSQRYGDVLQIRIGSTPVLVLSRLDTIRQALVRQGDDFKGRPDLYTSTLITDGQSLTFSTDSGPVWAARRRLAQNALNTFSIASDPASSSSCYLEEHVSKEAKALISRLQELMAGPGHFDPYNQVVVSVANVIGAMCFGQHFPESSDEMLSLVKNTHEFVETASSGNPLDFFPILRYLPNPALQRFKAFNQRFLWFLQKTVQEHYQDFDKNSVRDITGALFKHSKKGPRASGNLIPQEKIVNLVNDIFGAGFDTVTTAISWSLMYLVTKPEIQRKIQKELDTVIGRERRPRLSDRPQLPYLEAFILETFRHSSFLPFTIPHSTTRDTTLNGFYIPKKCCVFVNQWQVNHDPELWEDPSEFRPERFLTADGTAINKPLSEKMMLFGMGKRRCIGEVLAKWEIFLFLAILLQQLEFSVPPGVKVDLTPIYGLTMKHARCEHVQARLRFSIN

Question: Which IC50 (CYP1A2) does the source give for `CCC(=O)N[C@@H]1CCCc2c(-c3ccc4c(c3)CCC(=O)N4C)cncc21` [Baxdrostat, reference compound] here?
Answer: > 50 µM

Question: What about the IC50 at 10 min (CYP3A) of the same compound?
Answer: > 50 µM

Question: And the IC50 (CYP2C9)?
Answer: 35.2 µM

Question: And the IC50 (CYP2D6)?
Answer: > 50 µM

Question: And the Cmax ([1]; 0.05 mg/kg, 0.05mpk oral)?
Answer: 6.13 ng/mL

Question: What about the Tmax ([1]; 0.05 mg/kg, 0.05mpk oral) of the same compound?
Answer: 2 h

Question: What about the half-life ([1]; 0.05 mg/kg, 0.05mpk oral) of the same compound?
Answer: 10.9 h

Question: And the AUC(0-t) ([1]; 0.05 mg/kg, 0.05mpk oral)?
Answer: 90.3 ng·h/mL

Question: What about the Cmax ([1]; 0.5 mg/kg, 0.5mpk oral) of the same compound?
Answer: 56.1 ng/mL

Question: And the Tmax ([1]; 0.5 mg/kg, 0.5mpk oral)?
Answer: 2 h

Question: And the half-life ([1]; 0.5 mg/kg, 0.5mpk oral)?
Answer: 9.25 h

Question: And the AUC(0-t) ([1]; 0.5 mg/kg, 0.5mpk oral)?
Answer: 606 ng·h/mL

Question: What about the IC50 (CYP2C19) of the same compound?
Answer: 6.52 µM

Question: And the “reduction of aldosterone level in plasma” value (aldosterone synthase; dose-dependent)?
Answer: more than 70%

Question: What about the “inhibition of aldosterone synthase relative to inhibition of cortisol synthesis” value (aldosterone synthase) of the same compound?
Answer: 100 times

Question: And the IC50 (human CYP11B2; G-402 CYP11B2 cells, 0.2 μM 11-deoxycorticosterone, 16 hours, read-out: hCYP11B2 (AS) Abs IC50)?
Answer: 0.0281 µM

Question: And the “hCYP11B ½ Selectivity Fold” value (human CYP11B2; hCYP11B1 IC50 relative to hCYP11B2 IC50)?
Answer: 119.99 Fold
